Test results reported in patent US20230044979A1, “ANIMAL CELL CULTURING METHOD” (AJINOMOTO CO., INC., priority 2020, published 2023).

What was measured:
CHO cells [1] = experiment: Effect of addition of L-cysteine derivatives to feed medium on proliferation of CHO cells and antibody production (2); format: cell-based, Chinese hamster; conditions: for proliferation performance of cells: 14.5 mM in feed medium, L-cysteine in the feed medium substituted; for proliferation performance of cells / cell count, dependence on concentration: FIG. 4; for IgG production amount: 58.0 mM in feed medium; for IgG production amount / IgG production amount, dependence on concentration: FIG. 5; for cell count, dependence on concentration / IgG production amount, dependence on concentration: 14.5, 29, 58 mM in feed medium
Method: (§1) CELLiST (registered trademark) Basal media (Ajinomoto Co., Ltd.: BASAL3; containing 1.3 mM L-cysteine) was added with LR3-IGF-1 (SIGMA-ALDRICH: I1271-1MG, final concentration of 50 μg/mL) and L-Glutamine (Thermo Fisher SCIENTIFIC: 25030081, final concentration of 6 mM), to prepare a basal medium.
(§2) Feed media each containing 82 g/L Cellvento (registered trademark) Feed-210 (Merck: 1.02488.0005), 70 g/L glucose (Wako Pure Chemical Industries, Ltd.: 043-31163), and L-cysteine, Compound 3S, or Compound 3R each at 14.5 mM, 29 mM, or 58 mM were prepared. Separately, a tyrosine concentrate (L-tyrosine disodium salt dihydrate (Merck: 122666-87-9) 74.82 g/L, pH 11.3) was prepared.
A 3 mL-aliquot of a CHO cell suspension adjusted to 3×10^5 cells/mL using the prepared basal medium was seeded into a 6 well plate (CORNING, Cat. No. CLS3471), and cultured for 14 days. The culture was carried out with n=2 for all experimental groups. The culture temperature was 37° C. and the agitation speed was 110 rpm. A 0.18 mL-aliquot of each of the prepared feed media and a 12 μL-aliquot of the tyrosine concentrate were added on days 4, 7, 9, and 11 from the start of the culture. A cell culture broth was sampled on days 4, 7, 9, 11, and 14 from the start of the culture, and the viable cell count was measured using a viable/dead cells autoanalyzer Vi-CELL™ XR (Beckman Coulter), and the antibody production amount on days 11 and 14 from the start of the culture was measured using Octet QK (FORTEBIO).

[2] = Stability of L-cysteine derivatives in buffer solution (crystal precipitation by visual observation); format: physicochemical; conditions: 58 mM in PBS buffer pH 7.0 to 7.2; for relative stability compared with L-cysteine: 5° C. in the dark; for crystal precipitation, Days 0 / crystal precipitation, Days 3 / crystal precipitation, Days 7 / crystal precipitation, Days 14 / crystal precipitation, Days 21 / crystal precipitation, Days 24: stored at 5° C. in the dark; for crystal precipitation, Days 0: day 0; for crystal precipitation, Days 3: day 3; for crystal precipitation, Days 7: day 7; for crystal precipitation, Days 14: day 14; for crystal precipitation, Days 21: day 21; for crystal precipitation, Days 24: day 24
Method: In this Example, the stability of L-cysteine derivatives in a buffer solution was evaluated.
In the table, “+” to “++++” indicate that crystal precipitation was observed, and the higher the number of “+”, the greater the degree of precipitation.

CHO cells [3] = experiment: Effect of addition of L-cysteine derivatives to feed medium on proliferation of CHO cells and antibody production (3); format: cell-based, Chinese hamster; conditions: 58 mM in feed medium, 11 days culture, compared to the case without addition of L-cysteine; for cell count: FIG. 6; for antibody production amount: FIG. 7
Method: as §1
as §2, with “4, Compound 8, Compound 9,” for “3S,”, “11” for “3R”, “at” for “at 14.5 mM, 29 mM, or”, “were prepared. In addition, a feed medium without addition of L-cysteine, which only contained 82 g/L Cellvento (registered trademark) Feed-210 and 70 g/L glucose, was” for “were”
A 30 mL-aliquot of a CHO cell suspension adjusted to 3×10^5 cells/mL using the prepared basal medium was seeded into 125 mL-volume flasks (CORNING: 431143), and cultured for 11 days. The culture was carried out with n=2 for all experimental groups. The culture temperature was 37° C. and the agitation speed was 110 rpm. A 1.8 mL-aliquot of each of the prepared feed media and a 120 μL-aliquot of the tyrosine concentrate were added on days 4, 7, and 9 from the start of the culture. A cell culture broth was sampled on days 4, 7, 9, and 11 from the start of the culture, and the viable cell count was measured using a viable/dead cells autoanalyzer Vi-CELL™ XR (Beckman Coulter), and the antibody production amount was measured using Octet QK (FORTEBIO).

relative stability compared with L-cysteine [2]	crystal precipitation, Days 0 [2]	crystal precipitation, Days 3 [2]	crystal precipitation, Days 7 [2]	crystal precipitation, Days 14 [2]	crystal precipitation, Days 21 [2]	crystal precipitation, Days 24 [2]	Compound	proliferation performance of cells (CHO cells [1])	IgG production amount (CHO cells [1])	cell count, dependence on concentration (CHO cells [1])	IgG production amount, dependence on concentration (CHO cells [1])	cell count (CHO cells [3])	antibody production amount (CHO cells [3])	ability to substitute for L-cysteine (CHO cells [1]; in feed medium)
more stable than L-cysteine	−	−	−	−	−	−	COC(=O)[C@]1(C)N[C@H](C(=O)O)CS1 (stereo in doubt) [Compound 3R, (2RS,4R)-2-methyl-2,4-thiazolidinedicarboxylic acid 2-methyl ester]	approximately 70%	equivalent to that of the group adding 14.5 mM or 29.0 mM of L-cysteine hydrochloride monohydrate	increased in a concentration-dependent manner	increased in a concentration-dependent manner			
more stable than L-cysteine	−	−	−	−	−	−	COC(=O)[C@@]1(C)N[C@H](C(=O)O)CS1 (stereo in doubt) [Compound 3S, (2RS,4R)-2-methyl-2,4-thiazolidinedicarboxylic acid 2-methyl ester]	approximately 70%	equivalent to that of the group adding 14.5 mM or 29.0 mM of L-cysteine hydrochloride monohydrate	increased in a concentration-dependent manner	increased in a concentration-dependent manner			

More lines, now with the values behind:

Compound	relative stability compared with L-cysteine [2]	crystal precipitation, Days 0 [2]	crystal precipitation, Days 3 [2]	crystal precipitation, Days 7 [2]	crystal precipitation, Days 14 [2]	crystal precipitation, Days 21 [2]	crystal precipitation, Days 24 [2]	proliferation performance of cells (CHO cells [1])	IgG production amount (CHO cells [1])	cell count, dependence on concentration (CHO cells [1])	IgG production amount, dependence on concentration (CHO cells [1])	cell count (CHO cells [3])	antibody production amount (CHO cells [3])	ability to substitute for L-cysteine (CHO cells [1]; in feed medium)
CC(C)(C)OC(=O)C1(C)N[C@H](C(=O)O)CS1 (mixture of isomers) [Compound 6, (2RS,4R)-2-methyl-2,4-thiazolidinedicarboxylic acid 2-t-butyl ester]	more stable than L-cysteine	−	−	−	−	−	−							
COC(=O)C1(CC(C)C)N[C@H](C(=O)O)CS1 (mixture of isomers) [Compound 11, (2RS,4R)-2-i-butyl-2,4-thiazolidinedicarboxylic acid 2-methyl ester]												decreased	decreased	
CCOC(=O)C1N[C@H](C(=O)O)CS1 (mixture of isomers) [Compound 8, (2RS,4R)-2,4-thiazolidinedicarboxylic acid 2-ethyl ester]	more stable than L-cysteine	−	−	−	−	−	−					higher than those of the case without addition of L-cysteine	higher than those of the case without addition of L-cysteine	
COC(=O)[C@@]1(C)N[C@H](C(=O)O)CS1 (stereo in doubt) [Compound 3, (2RS,4R)-2-methyl-2,4-thiazolidinedicarboxylic acid 2-methyl ester]														able to substitute for L-cysteine
COC(=O)C1(Cc2ccc(O)cc2)N[C@H](C(=O)O)CS1 (mixture of isomers) [Compound 9, (2RS,4R)-2-(4-hydroxyphenyl)methyl-2,4-thiazolidinedicarboxylic acid 2-methyl ester]	more stable than L-cysteine	−	−	−	−	−	−					higher than those of the case without addition of L-cysteine	higher than those of the case without addition of L-cysteine	
CC(C)OC(=O)C1(C)N[C@H](C(=O)O)CS1 (mixture of isomers) [Compound 4, (2RS,4R)-2-methyl-2,4-thiazolidinedicarboxylic acid 2-i-propyl ester]	more stable than L-cysteine	−	−	−	−	−	−					higher than those of the case without addition of L-cysteine	higher than those of the case without addition of L-cysteine	
